Experimental data published in US20100003332A1, “Process For Preparing Powder Comprising Nanoparticles of Sparingly Soluble Drug” (Amorepacific Corporation, priority 2006, published 2010).
Like-named read-outs stand apart in the source and are kept apart here.

Key:
[1] = Bioavailability test: blood drug concentration after oral administration of suspensions to rats; type: in vivo; conditions: rat, suspension in distilled water, male rats fasted for 12 hours
Procedure: In order to investigate the bioavailability of the powder according to the present invention, cilostazol powder prepared in Example 6 and unprocessed cilostazole as a control group (average particle size: 3 to 5 μm, Dongwoo Co., Ltd.) were suspended in distilled water, respectively. The suspensions having equivalent amounts of cilostazole were each orally administered to three male rats fasted for 12 hours. Blood samples were taken from the ophthalmic vein of the rats immediately after the administration, and 0.5, 1, 2, 4 and 7 hours after the administration to determined the blood drug concentration changes with time. Also the maximum blood concentration (Cmax, μg/ml) and the area under the blood drug concentration-time curve (AUC, μg*hr/ml) were calculated, and the results are shown in Table 8.

[2] = Particle size of cilostazol (lactose/SLS ratio) after redispersion of slurry or dried powder in distilled water, laser scattering particle size analyzer; type: physicochemical
Procedure: 0.45 g of cilostazol (Dongwoo Co., Ltd.) and 0.15 g of hydroxypropyl cellulose were added to 5.1 ml of the saturated aqueous solution of lactose. […] The slurry mixture thus obtained was high-pressure filtered (pressure: 640 mmHg) using a sound pressure and freeze dried for 1 day to obtain powders.

[3] = Particle size of active ingredient (cilostazol, fenofibrate, itraconazole) powders redispersed in distilled water, laser scattering particle size analyzer; type: physicochemical; conditions: powder redispersed in aqueous solution, surface stabilizer HPC, dispersion agent SUCROSE
Procedure: 1.2 g of each of the active ingredient, 0.2 g of hydroxypropyl cellulose and 1.2 g of sucrose were added to 6.1 g of distilled water containing a saturated solution of sucrose, an appropriate amount of zirconia bead having the average particle size of 1 mm were added thereto, and the mixture was roll ground at a rate of 108 rpm for 5 days. The slurry mixture thus obtained was screened to remove the beads, and the residue was high-pressure filtered (pressure: 640 mmHg) using the sound pressure, followed by vacuum drying to obtain powders.

[4] = Particle size of cilostazol (lactose/SLS ratio) after redispersion of slurry or dried powder in distilled water, laser scattering particle size analyzer; type: physicochemical; conditions: Lactose 225 g, SLS 225 g
[5] = Procedure: 0.15 g of naproxen (TCI Chem) having an average particle size of 3 to 10 μm, 0.15 g of lactose and 0.03 g of hydroxypropy cellulose (HPC) were added to 3.4 ml of a saturated aqueous solution of lactose, and the mixture was wet ground using an oscillating mill at the room temperature for 30 minutes. The slurry mixture thus obtained was centrifuged at 4° C., 15,000 rpm for 30 minutes, and the residue in the bottom layer was vacuum dried for 24 hours to obtain a powder.
In the above process, the averaged particle size of naproxen particles was measured for 1) a test solution obtained by redispering 0.02 ml of the slurry mixture obtained after wet grinding in 10 ml of distilled water, and 2) an another test solution obtained by redispersing 0.01 g of the dried powder in 8 ml of distilled water, by using a laser scattering particle size analyzer (LA-910, Horiba). The redispersion was conducted by shaking the mixture with a hand.
Additional powders were prepared by repeating the above-mentioned procedure except for using sucrose, mannitol, trehalose, sorbitol and xylitol, respectively, instead of lactose, and naproxen particle sizes were measured by the same procedure.

[6] = Particle size of tacrolimus in redispersed powder with and without ultrasonic irradiation, laser scattering particle size analyzer; type: physicochemical; conditions: lactose
Procedure: 0.01 g of each of the powders thus obtained was redispersed using an ultrasonic irradiation (frequency: 39 kHz). The particle of the tacrolimus was measured by using a laser scattering particle size analyzer (LA0910, Horiba) for each of the test solution with and without the ultrasonic irradiation, and the results are shown in Table 4.

[7] = drying powder redispersed, Lactose 90 g, SLS 360 g
[8] = drying powder redispersed, Lactose 360 g, SLS 90 g
[9] = slurry mixture redispersed after wet grinding, Lactose 90 g, SLS 360 g
[10] = slurry mixture redispersed after wet grinding, Lactose 225 g, SLS 225 g
[11] = slurry mixture redispersed after wet grinding, Lactose 360 g, SLS 90 g
[12] = HPC, amount of lactose 20% by weight of active ingredient
[13] = HPC, amount of lactose 60% by weight of active ingredient
[14] = HPC, amount of lactose 100% by weight of active ingredient
[15] = HPC, amount of lactose 140% by weight of active ingredient
[16] = HPC, amount of lactose 180% by weight of active ingredient
[17] = dispersion agent Lactose, surface stabilizer PVP 10,000
[18] = dispersion agent Lactose, surface stabilizer PVP 29,000
[19] = dispersion agent Lactose, surface stabilizer PVP 55,000
[20] = dispersion agent Lactose, surface stabilizer PVP 130,000
[21] = dried powder redispersed in distilled water, surface stabilizer HPC, dispersion agent Lactose
[22] = dried powder redispersed, HPC, dispersion agent Mannitol
[23] = dried powder redispersed, HPC, dispersion agent Sorbitol
[24] = dried powder redispersed, HPC, dispersion agent Sucrose
[25] = dried powder redispersed, HPC, dispersion agent Trehalose
[26] = dried powder redispersed, HPC, dispersion agent Xylitol

O=C1CCc2cc(OCCCCc3nnnn3C3CCCCC3)ccc2N1 [Cilostazol raw material, cilostazol]
Cmax ([1]; read-out: Cmax (maximum blood concentration)): 150 ± 80 ng/mL
AUC ([1]; samples to 7 hours, read-out: AUC (area under the blood drug concentration-time curve)): 580 ± 90 ng·h/mL

O=C1CCc2cc(OCCCCc3nnnn3C3CCCCC3)ccc2N1 [Cilostazol, cilostazol]
Average particle size [2, 7]: 350 nm
Particle size range D10 [2, 7]: 230 nm
Particle size range D50 [2, 7]: 340 nm
Particle size range D90 [2, 7]: 390 nm
Average particle size ([2]; drying powder redispersed, Lactose 225 g, SLS 225 g): 360 nm
Average particle size [2, 8]: 200 nm
Particle size range D10 [2, 8]: 150 nm
Particle size range D50 [2, 8]: 200 nm
Particle size range D90 [2, 8]: 270 nm
Average particle size [2, 9]: 340 nm
Particle size range D10 [2, 9]: 230 nm
Particle size range D50 [2, 9]: 340 nm
Particle size range D90 [2, 9]: 470 nm
Average particle size [2, 10]: 340 nm
Particle size range D10 [2, 10]: 230 nm
Particle size range D90 [2, 10]: 470 nm
Average particle size [2, 11]: 190 nm
Particle size range D10 [2, 11]: 140 nm
Particle size range D50 [2, 11]: 180 nm
Particle size range D90 [2, 11]: 250 nm
Average particle size [3]: 170 nm
Range of particle size ([3]; in nm): 120~228
Particle size range D10 ([4]; drying powder redispersed): 240 nm
Particle size range D50 ([4]; drying powder redispersed): 350 nm
Particle size range D90 ([4]; drying powder redispersed): 490 nm
Particle size range D50 ([4]; slurry mixture redispersed after wet grinding): 330 nm

COc1ccc2cc([C@H](C)C(=O)O)ccc2c1 [Naproxen, naproxen]
Average particle size [5, 12]: 3,025 nm
Particle Size (D10~D90) [5, 12]: 154~4,292 nm
Average particle size [5, 13]: 500 nm
Particle Size (D10~D90) [5, 13]: 339~629 nm
Average particle size [5, 14]: 164 nm
Particle Size (D10~D90) [5, 14]: 40~260 nm
Average particle size [5, 15]: 391 nm
Particle Size (D10~D90) [5, 15]: 109~316 nm
Average particle size [5, 16]: 208 nm
Particle Size (D10~D90) [5, 16]: 108~310 nm
Average particle size [5, 17]: 16,800 nm
Particle Size (D10~D90) [5, 17]: 868.3~507.1 nm
Average particle size [5, 18]: 156.9 nm
Particle Size (D10~D90) [5, 18]: 95.9~208.7 nm
Average particle size [5, 19]: 192.4 nm
Particle Size (D10~D90) [5, 19]: 120.8~250.3 nm
Average particle size [5, 20]: 275.8 nm
Particle Size (D10~D90) [5, 20]: 150.6~417.5 nm
Average particle size [5, 21]: 164.1 nm
Particle Size (D10~D90) [5, 21]: 40.3~259.6 nm
Average particle size ([5]; dried powder redispersed in distilled water, surface stabilizer HPC, dispersion agent Lactose, listed as naproxen): about 164 nm
Average particle size [5, 22]: 450 nm
Particle Size (D10~D90) [5, 22]: 319.8~564.6 nm
Average particle size [5, 23]: 413.6 nm
Particle Size (D10~D90) [5, 23]: 280.4~532.7 nm
Average particle size [5, 24]: 297.1 nm
Particle Size (D10~D90) [5, 24]: 192.9~393.9 nm
Average particle size [5, 25]: 241.6 nm
Particle Size (D10~D90) [5, 25]: 162.8~312.5 nm
Average particle size [5, 26]: 637.9 nm
Particle Size (D10~D90) [5, 26]: 291.3~675.9 nm
average particle size of naproxen particles ([5]; slurry mixture after wet grinding redispersed in distilled water, HPC, lactose): about 133 nm

C=CC[C@@H]1/C=C(\C)C[C@H](C)C[C@H](OC)[C@H]2O[C@@](O)(C(=O)C(=O)N3CCCC[C@H]3C(=O)O[C@H](/C(C)=C/[C@@H]3CC[C@@H](O)[C@H](OC)C3)[C@H](C)[C@@H](O)CC1=O)[C@H](C)C[C@@H]2OC [tacrolimus]
Particle size according to the ultrasonic irradiation time ([6]; surface stabilizer Hydroxyproply cellulose, 0 minute ultrasonic irradiation): 4,980 nm
Particle size according to the ultrasonic irradiation time ([6]; surface stabilizer Hydroxyproply cellulose, 1 minute ultrasonic irradiation (39 kHz)): 220 nm
Particle size according to the ultrasonic irradiation time ([6]; surface stabilizer Poloxamer 407, 0 minute ultrasonic irradiation): 510 nm
Particle size according to the ultrasonic irradiation time ([6]; surface stabilizer Poloxamer 407, 1 minute ultrasonic irradiation (39 kHz)): 420 nm
Particle size according to the ultrasonic irradiation time ([6]; surface stabilizer Polyvinylpyrrolidone, 0 minute ultrasonic irradiation): 1,561 nm
Particle size according to the ultrasonic irradiation time ([6]; surface stabilizer Polyvinylpyrrolidone, 1 minute ultrasonic irradiation (39 kHz)): 610 nm
